US20180117011A1, “ENZALUTAMIDE IN COMBINATION WITH AFURESERTIB FOR THE TREATMENT OF CANCER” (Novartis AG, priority 2013, published 2018)

Key:
Format in all cases: cell-based
LNCaP cells [1] = assay: Luminescent caspase 3/7 assay in LNCaP cells; details: five days, FIG. 3A
Method: (§1) Tumor cells were seeded in 96-well white tissue culture plates in 100 μL growth media (media with 10% FBS) or CSS media (media with 10% charcoal stripped fetal bovine serum). LNCaP cells were seeded at a density of 1,000 cells per well, whereas, VCaP cells were seeded at 7,500 cells per well. Approximately 24 hr after plating, duplicate or triplicate plates of cells were treated with indicated compounds for both luminescent caspase-3/7 and CTG readings. At the end of the 5 days of incubations, half of the plates were lysed and caspase-3/7 activity was measured using the Caspase-Glo® 3/7 Assay (Promega) according to the manufacturer's protocol. Briefly, Caspase-Glo reagent was added to each plate, incubated for at least 45 minutes, and luminescent signal was read on the EnVision Multilabel Plate Reader with a 0.1 sec integration time. The remaining plates were lysed and ATP levels were measured using the CTG assay. The caspase-3/7 signal was normalized to the ATP signal. The normalized values were expressed as a percentage of the control wells.

VCaP cells = assay: Luminescent caspase 3/7 assay in VCaP cells; details: 5 days, FIG. 3B
Method: as §1

LNCaP cells [2] = assay: Cell proliferation assay (CellTiter-Glo, total cellular ATP); details: charcoal-stripped serum, 0.1 nM R1881, 7 days; FIG. 1
Method: Androgen-dependent prostate cancer cell line, LNCaP, were grown in RPMI 1640 culture medium supplemented with 10% charcoal-stripped fetal bovine serum for 24 hours in 96-well tissue culture plates at a density of 1,000 cells per well. Cells were treated with various concentrations of compounds A or B alone and in combination in presence of synthetic androgen (R1881, Sigma-Aldrich, St. Louis, Mo.). After 7 days, total cellular ATP was measured using the CellTiter-Glo Luminescent Cell Viability Assay (Promega, Madison, Wis.) on an EnVision plate reader. Background counts from wells containing no cells were subtracted and the data is presented as a percentage of the DMSO-treated control cells.

[3] = system: cell signaling in LNCaP cells; assay: Effect on cell signaling (immunoblot assay); details: 0.1 nM R1881, 6 hour, FIG. 2
Method: LNCaP cells were grown in RPMI 1640 culture medium supplemented with 10% charcoal-stripped fetal bovine serum for 48 hours in 6-well tissue culture plates at a density of 500,000 cells per well. Cells were treated with the indicated compounds for six hours, washed with PBS, and whole cell lysates were prepared in RIPA buffer (Teknova, Hollister, Calif.). Cell lysates were clarified by centrifugation at 20,000 relative centrifugal force, 4° C., and protein was quantified using the BCA Protein Assay Kit (Pierce, Rockford, Ill.). Equal amounts of protein lysates were separated by SDS-PAGE using a 4-12% Bis-Tris polyacrylamide gel (Life Technologies) and transferred to a nitrocellulose membrane and incubated with antibodies against total and phospho-AKT, phospho-PRAS40, total and phospho-S6, androgen receptor, and FKBP5. Following incubation with primary antibody, blots were washed and incubated with IRDye-800 anti-mouse or IRDye-680 anti-rabbit antibodies for 1 h. Following thorough washing, blots were analyzed using an infrared imaging system (LI-COR).

SMILES: CNC(=O)c1ccc(N2C(=S)N(c3ccc(C#N)c(C(F)(F)F)c3)C(=O)C2(C)C)cc1F [Compound A, 4-(3-(4-Cyano-3-(trifluoromethyl)phenyl)-5,5-dimethyl-4-oxo-2-thioxoimidazolidin-1-yl)-2-fluoro-N-methylbenzamide, reference compound]
- caspase 3/7 activity induction in LNCaP cells (LNCaP cells [1]; Compound A 10 uM, Compound B 1 uM, or both, medium not specified): no induction
- caspase 3/7 activity induction in LNCaP cells, media containing charcoal stripped serum (LNCaP cells [1]; CSS media): strong induction
- caspase 3/7 activity induction in LNCaP cells, growth media (LNCaP cells [1]; growth media (10% FBS)): strong induction
- caspase 3/7 activity induction in VCaP cells, CSS media (VCaP cells; Compound A 10 uM, CSS media): 11 fold
- caspase 3/7 activity induction in VCaP cells, growth media (VCaP cells; Compound A 10 uM, growth media): 2 fold
- LNCaP cell growth (anti-proliferative effect) (LNCaP cells [2]): inhibited

SMILES: Cn1ncc(Cl)c1-c1cc(C(=O)N[C@H](CN)Cc2cccc(F)c2)sc1Cl [Compound B, N-{(1S)-2-amino-1-[(3-fluorophenyl)methyl]ethyl}-5-chloro-4-(4-chloro-1-methyl-1H-pyrazol-5-yl)-2-thiophenecarboxamide]
- phospho-AKT (T308) ([3]; Compound B 100 or 300 nM alone or with compound A 3 uM): increased
- androgen receptor level ([3]; Compound B 100 or 300 nM): no significant effect
- androgen receptor target gene (FKBP5) expression ([3]; Compound B 100 or 300 nM): no significant effect
- phospho-PRAS40 (AKT downstream substrate) ([3]; Compound B 100 or 300 nM): inhibited
- phospho-S6 (AKT downstream substrate) ([3]; Compound B 100 or 300 nM): inhibited
- caspase 3/7 activity induction in VCaP cells, media containing charcoal stripped serum (in words) (VCaP cells; Compound B 1 uM, CSS media): not
- caspase 3/7 activity induction in VCaP cells, growth media (in words) (VCaP cells; Compound B 1 uM, growth media): strong induction
- LNCaP cell growth (anti-proliferative effect) (LNCaP cells [2]): inhibited
